From patent US9073880B2, “2-(2-phenylethenyl) 1,3-benzodiazepine derivatives useful for the treatment of cancer” (Yissum Research Development Company of the Hebrew …, priority 2010, dated 2015)

Tests used:
[1] = tested on: Human ovary cancer A2780 cells; test: Cell proliferation, A2780 (Example 2); assay type: cell-based; settings: 72 hours, 0.1% DMSO, methylene blue
Protocol: (§1) Human ovary cancer A2780 cells lines were seeded at a density of 5000 cells/well, human melanoma A375 cells were plated at a density of 2,500 cells/well, human colon carcinoma HCT15 cells were plated at a density of 3,000 cells/well, human prostate carcinoma PC3 cells were plated at a density of 1,500 cells/well, human breast carcinoma MCF7 cells were plated at a density of 5,000 cells/well, human breast carcinoma MDA MB 468 cells were plated at a density of 6,000 cells/well, human myeloma U266, RPMI8226 and CAG cells were plated at a density of 10,000 cells/well. All cells were plated in 96-well plates in 90 μl growth medium containing 10% FCS, 100 units/ml penicillin and 100 μg/ml streptomycin. Compound 3 was added a day later in […] of 1% DMSO in DDW to obtain final concentrations of 0, 0.1, 0.3, 1, 3, and 10 μM. The final concentration of DMSO (0.1% DMSO) was kept constant in all samples. […] The optical density values were read at 630 nm in ELISA plate reader. Non-adhered cells were exposed to WST-1 reagent for 5 hours following 72 hours treatment with the inhibitors, and optical density values were read at 630 nm in ELISA plate reader. The data was analyzed in Microsoft Excel, using the vehicle control as 100% proliferation. […]

human myeloma CAG cells = test: Cell proliferation, CAG (Example 2); assay type: cell-based; settings: multiple myeloma, 72 hours, 0.1% DMSO, WST-1
Protocol: as §1

human myeloma U266 cells = test: Cell proliferation, U266 (Example 2); assay type: cell-based; settings: U-266, U266, multiple myeloma, 72 hours, 0.1% DMSO, WST-1
Protocol: as §1

[2] = tested on: human ovary A2780 tumor cells; test: Survival of nude mice bearing intraperitoneal human ovarian A2780 tumors; assay type: in vivo; settings: for median survival time: IV, control 28 days
Protocol: In order to determine the effect of the compounds of the present invention on the growth and spread of tumors in-vivo, the compounds were administered to nude mice bearing human ovarian cancer. […] A model of peritoneal carcinomatosis formation, involving intraperitoneal administration of human ovary A2780 tumor cells, was used.
Two million human ovarian A2780 cells were injected to the peritoneum of 4-5 weeks old female nude mice. A week later, treatments with compound 3 or vehicle were initiated. Compound 3 was administered IV, daily at a dose of 3 mg/kg or weekly at a dose of 12 mg/kg for the time periods indicated in FIG. 7. The control group was weekly administered (IV) with the vehicle (20% 2-hydroxypropyl-b-cyclodextrin). Each group included 10 mice.

[3] = tested on: human myeloma RPMI8226 cells; test: Cell proliferation, RPMI8226 (Example 2); assay type: cell-based; settings: RPMI-8226, RPMI8226, multiple myeloma, 72 hours, 0.1% DMSO, WST-1
Protocol: as §1

IGF-1R = biological target: T1, IGF-1R (Homo sapiens, UniProt P08069); test: IGF1-induced IGF-1R auto-phosphorylation in MCF7 cells (western blot); assay type: cell-based; settings: 10 μM, FIG. 3
T1 construct: endogenous in cells; host or cells: MCF7 human breast cancer cells
T1 sequence (P08069 31-1367): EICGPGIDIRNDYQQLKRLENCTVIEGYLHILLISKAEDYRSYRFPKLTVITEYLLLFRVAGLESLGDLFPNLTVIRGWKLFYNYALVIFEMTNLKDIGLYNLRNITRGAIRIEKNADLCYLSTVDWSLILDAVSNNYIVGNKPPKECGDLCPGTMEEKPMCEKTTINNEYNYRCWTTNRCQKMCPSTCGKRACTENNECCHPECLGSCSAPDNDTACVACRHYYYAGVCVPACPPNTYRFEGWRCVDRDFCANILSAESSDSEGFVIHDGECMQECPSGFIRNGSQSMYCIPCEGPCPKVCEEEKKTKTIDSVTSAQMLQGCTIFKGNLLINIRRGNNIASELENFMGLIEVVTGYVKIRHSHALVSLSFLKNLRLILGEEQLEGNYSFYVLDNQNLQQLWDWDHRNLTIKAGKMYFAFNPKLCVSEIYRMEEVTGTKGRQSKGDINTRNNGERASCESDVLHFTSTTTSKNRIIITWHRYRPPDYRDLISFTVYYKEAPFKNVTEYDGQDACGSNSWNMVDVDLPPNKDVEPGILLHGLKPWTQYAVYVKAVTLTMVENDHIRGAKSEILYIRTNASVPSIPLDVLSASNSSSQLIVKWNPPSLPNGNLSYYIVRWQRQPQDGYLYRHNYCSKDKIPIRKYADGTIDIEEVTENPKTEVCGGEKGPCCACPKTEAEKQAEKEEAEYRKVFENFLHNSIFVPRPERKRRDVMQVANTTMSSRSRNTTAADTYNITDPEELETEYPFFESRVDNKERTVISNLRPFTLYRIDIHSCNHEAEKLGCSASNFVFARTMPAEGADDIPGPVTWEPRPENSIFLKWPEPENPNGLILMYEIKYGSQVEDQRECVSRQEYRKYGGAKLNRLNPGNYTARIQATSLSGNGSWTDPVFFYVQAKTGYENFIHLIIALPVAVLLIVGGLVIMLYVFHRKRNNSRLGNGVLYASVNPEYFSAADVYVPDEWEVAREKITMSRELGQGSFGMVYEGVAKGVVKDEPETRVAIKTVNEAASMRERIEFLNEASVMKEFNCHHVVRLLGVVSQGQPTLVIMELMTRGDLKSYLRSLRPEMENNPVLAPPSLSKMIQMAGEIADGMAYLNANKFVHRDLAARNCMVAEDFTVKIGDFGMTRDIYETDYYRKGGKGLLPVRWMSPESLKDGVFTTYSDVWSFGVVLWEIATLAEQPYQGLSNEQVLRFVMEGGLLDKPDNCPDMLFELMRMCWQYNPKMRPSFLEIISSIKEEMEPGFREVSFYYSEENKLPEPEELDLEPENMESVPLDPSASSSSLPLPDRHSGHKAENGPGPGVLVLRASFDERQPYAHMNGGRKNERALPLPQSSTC
Protocol: (§2) Tyrosine autophosphorylation of the β-subunit of IGF-1R as well as downstream signaling induced by IGF-1R were assayed in human breast cancer MCF7 cells and in melanoma A375 cells. Cells were seeded in 6-well plates (250,000 A375 cells/well and 300,000 MCF7 cells/well) and 24 hours later medium was replaced by serum-free medium (RPMI supplemented with 100 units/ml penicillin and 100 μg/ml streptomycin). MCF7 cells were exposed for 48 hr to compound 3 at 10 μM concentration, and then stimulated for 5 minutes with 50 ng/ml IGF-1, washed twice with PBS and lysed by boiling sample buffer (10% glycerol, 50 mM Tris-HCl, pH 6.8, 3% SDS, and 5% (3-mercaptoethanol). Equal amounts of protein per lane were separated by 8% SDS-PAGE and transferred to a nitrocellulose membrane (Sartorius AG). Phosphorylated proteins were immunoblotted with anti-phosphoIGF-1R (pIGF-1R), anti-phosphotyrosine-IRS1 (pY-IRS I) and anti-phospho(T308)Akt (pPKB) antibodies. Detection was performed with horseradish peroxidase-conjugated secondary antibody using the ECL system. Blots were then stripped of antibodies, blocked with TBST with 5% low fat milk and re-probed with antibodies detecting both the phosphorylated and the non-phosphorylated corresponding proteins e.g. IGF-1Rβ, IRS1 and PKB.

IRS1 and IRS2 = IRS1 and IRS2 serine phosphorylation in A375 cells (western blot); assay type: cell-based, human; settings: melanoma A375 cells treated 4 hr, 1 and 3 μM; FIG. 4
Protocol: as §2, with “Blots were then stripped of antibodies, blocked with TBST with 5% low fat milk and re-probed with antibodies detecting both the phosphorylated and the non-phosphorylated corresponding proteins e.g. IGF-1Rβ, IRS1 and PKB.” left out
In addition, lysates of human melanoma A375 cells were prepared from cells exposed to compound 3 at 1 and 3 μM concentrations in serum-free medium. […] In this experiment the phosphorylated form of IRS1 on Serine-636/639 and the levels of IRS2 were detected as well.

[4] = tested on: human colon carcinoma HCT15 cells; test: Cell proliferation, HCT15 (Example 2); assay type: cell-based; settings: HCT-15, 72 hours, 0.1% DMSO, methylene blue
Protocol: as §1

PKB = test: IGF1-induced PKB activation in MCF7 cells (western blot); assay type: cell-based, human; settings: 10 μM, 48 hr, 50 ng/ml IGF-1 5 minutes, FIG. 3
Protocol: as §2

`O=c1c(O)cc2cnc(/C=C/c3cc(O)c(O)c(Br)c3)sc-2c1O` [Compound 3] showed an IC50 [1] of 300 nM, an IC50 (human myeloma CAG cells) of 1200 nM and an IC50 (human myeloma U266 cells) of 700 nM. The “median survival time compared to Cisplatin and Sunitinib” value ([2]; 50 mg/kg daily IV vs Cisplatin 3 mg/kg ip 3 times a week for two weeks and Sunitinib 40 mg/kg daily PO, data not shown) was “preferable median survival time”, the median survival time ([2]; daily, 3 mg/kg, FIG. 7) was “over 81 days” and the median survival time ([2]; weekly, 12 mg/kg, FIG. 7) was “over 81 days”. For the same compound, the “survival compared to control mice” value ([2]; intravenous treatment, 3 mg/kg daily or 12 mg/kg weekly, FIG. 7) was “dramatically increased survival”, the IC50 [3] was 2000 nM and the “IGF1-induced auto-phosphorylation of IGF-1R” value (IGF-1R; 48 hr, 50 ng/ml IGF-1 5 minutes) was “significantly inhibited”. The “duration of the inhibitory effect” value (IGF-1R) was “more than 48 hr”, the “IRS1 and IRS2 serine phosphorylation” value (IRS1 and IRS2) was “induction of IRS1 and IRS2 serine phosphorylation” and the IC50 [4] was 1000 nM. For the same compound, the “IGF1-induced activation of the downstream signaling component PKB” value (PKB) was “significantly inhibited”.
